In ChEMBL document CHEMBL4130350, “Discovery, mechanism and metabolism studies of 2,3-difluorophenyl-linker-containing PARP1 inhibitors with enhanced in vivo efficacy for cancer therapy” (Eur J Med Chem, 2017):

Assays:
[1] = target: Poly [ADP-ribose] polymerase 1 (Homo sapiens, UniProt P09874); test: Inhibition of PARP1 (unknown origin) by ELISA
V79 = test: Cytotoxicity against BRCA2 expressing Chinese hamster V79 cells after 3 days by CCK8 or SRB assay; assay type: cell-based; conditions: Cricetulus griseus, V79, 72 h
[2] = Cytotoxicity against BRCA2 deficient Chinese hamster VC8 cells after 3 days by CCK8 or SRB assay; assay type: functional, cell-based; conditions: Cricetulus griseus, V-C8, 72 h
MDA-MB-436 = test: Antiproliferative activity against human MDA-MB-436 cells after 7 days by CCK8 or SRB assay; assay type: functional, cell-based; conditions: MDA-MB-436, 168 h
[3] = Solubility of the compound in water after 24 hrs by HPLC analysis; assay type: physicochemical
[4] = Retention time in mouse liver microsomes at 2 uM up to 60 mins in presence of NADPH by LC-MS/MS analysis; assay type: ADME, microsome; conditions: 1 h
[5] = Drug level in mouse liver microsomes treated with 2-(4-(2,3-Difluoro-5-((4-oxo-3,4-dihydrophthalazin-1-yl)methyl)benzoyl)pipe-razin-1-yl)nicotinonitrile at 2 uM up to 60 mins by LC-MS/MS analysis; assay type: ADME, microsome; conditions: 1 h

Poly [ADP-ribose] polymerase 1, sequence (P09874 whole entry): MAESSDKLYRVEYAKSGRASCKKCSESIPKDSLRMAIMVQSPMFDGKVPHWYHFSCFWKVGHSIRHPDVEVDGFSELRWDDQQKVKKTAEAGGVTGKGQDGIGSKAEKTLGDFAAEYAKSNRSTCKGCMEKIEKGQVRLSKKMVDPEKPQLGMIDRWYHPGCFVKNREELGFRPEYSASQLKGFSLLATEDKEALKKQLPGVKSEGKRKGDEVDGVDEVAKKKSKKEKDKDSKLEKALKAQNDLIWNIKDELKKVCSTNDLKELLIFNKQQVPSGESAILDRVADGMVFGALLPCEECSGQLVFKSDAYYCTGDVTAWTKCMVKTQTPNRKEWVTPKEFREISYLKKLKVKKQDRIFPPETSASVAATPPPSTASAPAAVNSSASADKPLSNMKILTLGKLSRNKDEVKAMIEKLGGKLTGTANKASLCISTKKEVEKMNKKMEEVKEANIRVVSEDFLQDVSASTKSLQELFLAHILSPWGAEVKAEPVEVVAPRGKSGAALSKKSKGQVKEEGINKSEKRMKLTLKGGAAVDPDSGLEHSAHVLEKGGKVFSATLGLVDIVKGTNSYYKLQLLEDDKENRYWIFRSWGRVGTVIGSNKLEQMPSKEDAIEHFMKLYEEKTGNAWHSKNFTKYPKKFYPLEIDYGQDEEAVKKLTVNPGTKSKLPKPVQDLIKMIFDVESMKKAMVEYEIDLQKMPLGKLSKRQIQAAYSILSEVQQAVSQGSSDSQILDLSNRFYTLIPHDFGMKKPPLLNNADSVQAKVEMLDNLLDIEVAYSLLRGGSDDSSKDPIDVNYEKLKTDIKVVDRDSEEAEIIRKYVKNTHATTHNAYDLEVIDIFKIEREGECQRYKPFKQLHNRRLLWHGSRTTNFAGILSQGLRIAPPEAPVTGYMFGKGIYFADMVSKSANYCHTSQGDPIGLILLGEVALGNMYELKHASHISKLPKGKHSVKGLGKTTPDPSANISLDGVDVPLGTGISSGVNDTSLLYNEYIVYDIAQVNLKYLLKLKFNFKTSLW

Structure (SMILES)	IC50 [1] [nM]	IC50 (MDA-MB-436) [nM]	IC50 (V79) [nM]	IC50 [2] [nM]	also measured
CCN1CCN(C(=O)c2cc(Cc3n[nH]c(=O)c4ccccc34)cc(F)c2F)CC1	1.4	12.9	> 10000	987	–
Cc1ccc(N2CCN(C(=O)c3cc(Cc4n[nH]c(=O)c5ccccc45)cc(F)c3F)CC2)cc1	< 0.1	405	> 10000	2080	–
O=C(c1cc(Cc2n[nH]c(=O)c3ccccc23)cc(F)c1F)N1CCN(CC2CC2)CC1	9.7	–	–	–	–
O=C(c1cc(Cc2n[nH]c(=O)c3ccccc23)cc(F)c1F)N1CCN(c2nccs2)CC1	0.2	6.3	> 10000	137	–
COc1ccccc1N1CCN(C(=O)c2cc(Cc3n[nH]c(=O)c4ccccc34)cc(F)c2F)CC1	297	–	–	–	–
O=C(c1cc(Cc2n[nH]c(=O)c3ccccc23)cc(F)c1F)N1CCN(c2ccc(Br)cc2)CC1	83.4	–	–	–	–
O=C(c1cc(Cc2n[nH]c(=O)c3ccccc23)cc(F)c1F)N1CCN(c2nsc3ccccc23)CC1	52.2	–	–	–	–
O=C(c1cc(Cc2n[nH]c(=O)c3ccccc23)cc(F)c1F)N1CCN(c2ccccc2F)CC1	55.8	–	–	–	–
O=C(c1cc(Cc2n[nH]c(=O)c3ccccc23)cc(F)c1F)N1CCN(c2ccccn2)CC1	0.1	< 0.03	924	< 3.2	–
O=C(c1cc(Cc2n[nH]c(=O)c3ccccc23)cc(F)c1F)N1CCN(c2ncccn2)CC1	2.9	–	–	–	–
N#Cc1ccccc1N1CCN(C(=O)c2cc(Cc3n[nH]c(=O)c4ccccc34)cc(F)c2F)CC1	0.02	< 0.05	4340	8.8	solubility at 24 h [3]: < 0.2 µg/mL
N#Cc1ccc(N2CCN(C(=O)c3cc(Cc4n[nH]c(=O)c5ccccc45)cc(F)c3F)CC2)cc1	5.4	–	–	–	–
O=C(c1cc(Cc2n[nH]c(=O)c3ccccc23)cc(F)c1F)N1CCN(c2ccccc2O)CC1	0.9	0.3	7830	31.7	–
N#Cc1cccc(N2CCN(C(=O)c3cc(Cc4n[nH]c(=O)c5ccccc45)cc(F)c3F)CC2)n1	5.1	–	–	–	–
O=C(c1ccccc1)N1CCN(C(=O)c2cc(Cc3n[nH]c(=O)c4ccccc34)cc(F)c2F)CC1	6.1	–	–	–	–
O=C(c1cc(Cc2n[nH]c(=O)c3ccccc23)cc(F)c1F)N1CCN(c2nccc(Br)n2)CC1	110	–	–	–	–
N#Cc1cccnc1NCCN(CC(=O)O)C(=O)c1cc(Cc2n[nH]c(=O)c3ccccc23)cc(F)c1F	–	–	–	–	Retention_time [4]: 6.7 min; Drug uptake [5]: Active
O=C(c1cc(Cc2n[nH]c(=O)c3ccccc23)cc(F)c1F)N1CCN(Cc2cccnc2)CC1	157	–	–	–	–
O=C(c1cc(Cc2n[nH]c(=O)c3ccccc23)cc(F)c1F)N1CCN(C2CCCCCC2)CC1	0.8	6	> 10000	42.6	–
N#Cc1cccnc1NCCN(CCO)C(=O)c1cc(Cc2n[nH]c(=O)c3ccccc23)cc(F)c1F	–	–	–	–	Retention_time [4]: 6.2 min; Drug uptake [5]: Active
Cc1ccc(Cl)cc1N1CCN(C(=O)c2cc(Cc3n[nH]c(=O)c4ccccc34)cc(F)c2F)CC1	324	–	–	–	–
O=C(c1cc(Cc2n[nH]c(=O)c3ccccc23)cc(F)c1F)N1CCN(c2ncc(Br)cn2)CC1	175	–	–	–	–
O=C(c1cc(Cc2n[nH]c(=O)c3ccccc23)cc(F)c1F)N1CCN(c2ccccc2)CC1	0.5	82.4	6030	1940	–
O=C(c1cc(Cc2n[nH]c(=O)c3ccccc23)cc(F)c1F)N1CCN(C(=O)C2CCCO2)CC1 (stereo not drawn)	2.4	4.9	> 10000	68.1	–
COc1ccc(N2CCN(C(=O)c3cc(Cc4n[nH]c(=O)c5ccccc45)cc(F)c3F)CC2)cc1	112	–	–	–	–
O=C(c1cc(Cc2n[nH]c(=O)c3ccccc23)cc(F)c1F)N1CCN(c2ncc(C(F)(F)F)cn2)CC1	70.5	–	–	–	–
O=C(c1cc(Cc2n[nH]c(=O)c3ccccc23)cc(F)c1F)N1CCN(c2ccc(O)cc2)CC1	0.6	27.1	> 10000	3970	–
CCCCN1CCN(C(=O)c2cc(Cc3n[nH]c(=O)c4ccccc34)cc(F)c2F)CC1	2.1	< 0.03	771	149	–

More lines, main results first:

IC50 [1] [nM]	IC50 (MDA-MB-436) [nM]	Structure (SMILES)	IC50 (V79) [nM]	IC50 [2] [nM]	also measured
0.9	3.7	O=C(c1cc(Cc2n[nH]c(=O)c3ccccc23)cc(F)c1F)N1CCN(c2ccncc2)CC1	> 10000	3290	–
0.4	10.8	O=C(c1cc(Cc2n[nH]c(=O)c3ccccc23)cc(F)c1F)N1CCN(c2ccc(F)cc2)CC1	2850	90.1	–
96.8	–	O=C(c1cc(Cc2n[nH]c(=O)c3ccccc23)cc(F)c1F)N1CCN(Cc2ccccc2)CC1	–	–	–
4.2	396	O=C(c1cc(Cc2n[nH]c(=O)c3ccccc23)cc(F)c1F)N1CCN(c2cccc(Cl)c2)CC1	7880	1600	–
29.1	–	Cc1ccc(C(=O)N2CCN(C(=O)c3cc(Cc4n[nH]c(=O)c5ccccc45)cc(F)c3F)CC2)cc1	–	–	–
0.8	23.4	O=C(c1cc(Cc2n[nH]c(=O)c3ccccc23)cc(F)c1F)N1CCN(c2cccc(C(F)(F)F)c2)CC1	> 10000	624	–
3.5	–	O=C(c1cc(Cc2n[nH]c(=O)c3ccccc23)cc(F)c1F)N1CCN(C2CCCCC2)CC1	–	–	–
0.4	9.4	O=C(c1cc(Cc2n[nH]c(=O)c3ccccc23)cc(F)c1F)N1CCN(c2ccc([N+](=O)[O-])cc2)CC1	> 10000	206	–
2.3	25.7	O=C(c1cc(Cc2n[nH]c(=O)c3ccccc23)cc(F)c1F)N1CCN(C(=O)N2CCOCC2)CC1	> 10000	938	–
7.1	–	CC(=O)N1CCN(C(=O)c2cc(Cc3n[nH]c(=O)c4ccccc34)cc(F)c2F)CC1	–	–	–
103	–	O=C(c1cc(Cc2n[nH]c(=O)c3ccccc23)cc(F)c1F)N1CCN(c2ccc(Cl)cc2)CC1	–	–	–
2.6	10.6	O=C(c1cc(Cc2n[nH]c(=O)c3ccccc23)cc(F)c1F)N1CCN(C2CCCC2)CC1	> 10000	284	–
11.2	–	O=C(c1cc(Cc2n[nH]c(=O)c3ccccc23)cc(F)c1F)N1CCN(C(=O)C2CC2)CC1	–	–	–
